The values that follow come from ChEMBL document CHEMBL4414629, “Macroline-Sarpagine Bisindole Alkaloids with Antiproliferative Activity from Alstonia penangiana” (J Nat Prod, 2019).

For orientation: IC50 means the concentration at which inhibition is half-maximal.

The subject of experiment [1] is KB/VJ300. The experiment is described as follows: Antiproliferative activity against human vincristine-rsistant KB/VJ300 cells assessed as reduction in cell growth after 72 hrs by MTT assay. The format is functional, cell-based. Conditions: KB/VJ300, 72 h. (In general: Tetrazolium assays rely on reduction of a dye to a coloured formazan, in cell work by metabolically active cells.)

Experiment [2] is described as follows: Antiproliferative activity against human KB/S cells assessed as reduction in cell growth after 72 hrs by MTT assay. The format is functional, cell-based.
For experiment [3], the system named is KB/VJ300. As to the kind of experiment: Antiproliferative activity against human KB/VJ300 cells assessed as reduction in cell growth after 72 hrs by MTT assay. The format is functional, cell-based. Conditions: KB/VJ300, 72 h.
A further experiment concerns MRC5. As to the kind of experiment: Cytotoxicity against human MRC5 cells assessed as reduction in cell growth after 72 hrs by MTT assay. The format is cell-based. Conditions: MRC5, 72 h.
For a further experiment, the system named is A549. As to the kind of experiment: Antiproliferative activity against human A549 cells assessed as reduction in cell growth after 72 hrs by MTT assay. The format is functional, cell-based. Conditions: A549, 72 h.
The next experiment has as its system MCF7. The experiment is described as follows: Antiproliferative activity against human MCF7 cells assessed as reduction in cell growth after 72 hrs by MTT assay. The conditions noted are these: MCF7, 72 h. The format is functional, cell-based.
The subject of another experiment is HT-29. As to the kind of experiment: Antiproliferative activity against human HT-29 cells assessed as reduction in cell growth after 72 hrs by MTT assay. Conditions: HT-29, 72 h. The format is functional, cell-based.
Another experiment has as its system HCT-116. The experiment is described as follows: Antiproliferative activity against human HCT116 cells assessed as reduction in cell growth after 72 hrs by MTT assay. The format is functional, cell-based. The conditions noted are these: HCT-116, 72 h.
For another experiment, the system named is PC-3. As to the kind of experiment: Antiproliferative activity against human PC3 cells assessed as reduction in cell growth after 72 hrs by MTT assay. The conditions noted are these: PC-3, 72 h. The format is functional, cell-based.
The subject of a further experiment is LNCaP. The experiment is described as follows: Antiproliferative activity against human LNCAP cells assessed as reduction in cell growth after 72 hrs by MTT assay. The format is functional, cell-based.
The test system of another experiment is MDA-MB-231. The experiment is described as follows: Antiproliferative activity against human MDA-MB-231 cells assessed as reduction in cell growth after 72 hrs by MTT assay. The format is functional, cell-based. The conditions noted are these: MDA-MB-231, 72 h.
Another experiment relates to CCD-18Co. The experiment is described as follows: Cytotoxicity against human CCD-18Co cells assessed as reduction in cell growth after 72 hrs by MTT assay. The format is cell-based.

On to `COc1ccc(CCN(C)CCCC(C#N)(c2ccc(OC)c(OC)c2)C(C)C)cc1OC` (stereo not drawn) [VERAPAMIL], for which the IC50 in the experiment with KB/VJ300 [1] turned out to be 0.4 µM.
As for `CC[C@]1(O)C[C@H]2CN(CCc3c([nH]c4ccccc34)[C@@](C(=O)OC)(c3cc4c(cc3OC)N(C=O)[C@H]3[C@@](O)(C(=O)OC)[C@H](OC(C)=O)[C@]5(CC)C=CCN6CC[C@]43[C@@H]65)C2)C1` [VINCRISTINE], the IC50 was found to be 0.0008 µM in [2] and 0.8 µM with KB/VJ300 [3].
In the case of `C/C=C1/CN2[C@H]3C[C@@H]1[C@@H](CO)[C@@H]2Cc1c3n(C)c2cc(C[C@@H]3[C@@H]4C[C@H]5c6c(c7ccccc7n6C)C[C@@H]([C@@H]4CO[C@]3(C)OC)N5C)c(OC)cc12`, the IC50 in the experiment with MRC5 is more than 10 µM; in the experiment on A549, more than 10 µM; with MCF7, 5.3 µM; in the experiment on HT-29 it was 0.07 µM; in the experiment with HCT-116, more than 10 µM; in the experiment with KB/VJ300 [1], 3.9 µM. The IC50 was more than 10 µM in the experiment with PC-3; 1.1 µM in experiment [2]; 3.7 µM with LNCaP; more than 10 µM in the experiment on KB/VJ300 [3]; 4.8 µM with MDA-MB-231.
With `C/C=C1/CN2[C@H]3C[C@@H]1[C@@H](CO)[C@@H]2Cc1c3n(C)c2ccc(OC)c(C[C@@H](C(C)=O)[C@@H]3C[C@H]4c5c(c6ccccc6n5C)C[C@@H]([C@@H]3CO)N4C)c12`, the IC50 with CCD-18Co came out at 4.1 µM; in the experiment on A549, 3.9 µM; with MCF7, 7.7 µM; in the experiment on HT-29, 0.03 µM; in the experiment with HCT-116 it was 1.5 µM; with KB/VJ300 [1], 8.8 µM. Also, the IC50 is more than 10 µM in the experiment with PC-3, 2.5 µM in experiment [2], 5.5 µM in the experiment on KB/VJ300 [3] and 4.1 µM in the experiment with MDA-MB-231.
For the molecule `C/C=C1/CN2[C@H]3C[C@@H]1[C@@H](CO)[C@@H]2Cc1c3n(C)c2cc(C[C@H]3[C@@H]4C[C@H]5c6c(c7ccccc7n6C)C[C@@H]([C@@H]4CO[C@]3(C)OC)N5C)c(OC)cc12`, the IC50 is 4.3 µM with CCD-18Co; 6.8 µM in the experiment with A549; 1.3 µM in the experiment with MCF7; 0.03 µM in the experiment with HT-29; 2.9 µM in the experiment with HCT-116; 3.1 µM in the experiment on PC-3. Besides, the IC50 in experiment [2] is 2.4 µM; with KB/VJ300 [3], 2.9 µM; in the experiment with MDA-MB-231, 1.4 µM.
As for `C/C=C1/CN2[C@H]3C[C@@H]1[C@@H](CO)[C@@H]2Cc1c3n(C)c2ccc(OC)c(CC3=C(C)OC[C@@H]4[C@H]3C[C@H]3c5c(c6ccccc6n5C)C[C@@H]4N3C)c12`, the IC50 in the experiment on CCD-18Co was 9.7 µM; in the experiment with A549, 9 µM; in the experiment with MCF7, 2 µM; with HT-29, 0.07 µM; in the experiment with HCT-116 it was 4.2 µM; in the experiment on PC-3, 6.1 µM. Moreover, the IC50 in experiment [2] amounted to 2.8 µM; in the experiment with KB/VJ300 [3], 5.9 µM; in the experiment on MDA-MB-231, 4.8 µM.
As for `C/C=C1/CN2[C@H]3C[C@@H]1[C@@H](CO)[C@@H]2Cc1c3n(C)c2cc(C(C)C3=COC[C@@H]4[C@H]3C[C@H]3c5c(c6ccccc6n5C)C[C@@H]4N3C)c(OC)cc12` (stereo partly drawn), the IC50 was 7.9 µM in the experiment on MRC5; 7 µM in the experiment with A549; 4.5 µM with MCF7; 0.3 µM with HT-29; more than 10 µM with HCT-116; 0.2 µM in the experiment with KB/VJ300 [1]. The IC50 in the experiment on PC-3 came out at 8.2 µM; in experiment [2], 0.6 µM; with LNCaP it was 6.2 µM; in the experiment on KB/VJ300 [3] it was 6.7 µM; in the experiment on MDA-MB-231, 4.5 µM.
As for `C/C=C1/CN2[C@H]3C[C@@H]1[C@@H](CO)[C@@H]2Cc1c3n(C)c2cc(C[C@@H](C(C)=O)[C@@H]3C[C@H]4c5c(c6ccccc6n5C)C[C@@H]([C@@H]3CO)N4C)c(OC)cc12`, the IC50 in the experiment on CCD-18Co is 5.1 µM; with A549, 3 µM; in the experiment with MCF7 it was 8.5 µM; with HT-29, 0.02 µM; in the experiment with HCT-116 it was 2.1 µM; in the experiment on KB/VJ300 [1], 4.2 µM. Further, the concentration for half-maximal inhibition (IC50) in the experiment on PC-3 is more than 10 µM; in experiment [2] it was 1.7 µM; in the experiment on KB/VJ300 [3] it was 3.6 µM; in the experiment on MDA-MB-231 it was more than 10 µM.
